Reference: patent US10106515B2, “1-(cyclopent-2-en-1-yl)-3-(2-hydroxy-3-(arylsulfonyl)phenyl)urea derivatives as CXCR2 inhibitors” (GLAXOSMITHKLINE INTELLECTUAL PROPERTY DEVELOPMENT LIMITED, priority 2014, dated 2018)
Structures can show the parent of a compound that is named as a salt.

Target: T1, recombinant human CXCR2 (Homo sapiens, UniProt P25025)
T1 construct: TEV protease site; Gal4-VP16 transcription factor
T1 sequence (P25025 1-360): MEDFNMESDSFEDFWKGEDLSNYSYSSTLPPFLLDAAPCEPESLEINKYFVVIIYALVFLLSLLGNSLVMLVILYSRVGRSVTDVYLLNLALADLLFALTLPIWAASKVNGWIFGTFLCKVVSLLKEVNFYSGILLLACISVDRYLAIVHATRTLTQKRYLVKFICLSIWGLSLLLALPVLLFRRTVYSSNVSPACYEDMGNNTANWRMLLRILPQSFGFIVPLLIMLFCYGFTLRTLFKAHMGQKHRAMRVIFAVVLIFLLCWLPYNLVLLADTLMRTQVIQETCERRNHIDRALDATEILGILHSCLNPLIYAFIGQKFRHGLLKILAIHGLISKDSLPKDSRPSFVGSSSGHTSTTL
Experiment: CXCR2 Tango assay
Format: cell-based
Details: mean pIC50 of multiple test results; stimulated with 80 nM hCXCL1; reporter gene blue/green emission ratio; read-out: pIC50 (CXCR2 Tango assay) (converted)
How it was run: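 Mean pIC50 comes from sigmoidal fits of the blue/green (460/530 nm) CCF4-AM ratio, normalized between hCXCL1-stimulated and DMSO controls. Compounds in 10-point dose response were incubated overnight at 37 °C with recombinant human CXCR2 Tango cells (~10,000/well) and 80 nM hCXCL1, with reporter read-out via arrestin-TEV release of Gal4-VP16.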

Structure (SMILES)	IC50 [nM]
CC1=CCCC1NC(=O)Nc1ccc(Cl)c(S(=O)(=O)N2CC[C@@H](F)C2)c1O (stereo partly drawn) [Compound 113, 1-(4-chloro-3-(((R)-3-fluoropyrrolidin-1-yl)sulfonyl)-2-hydroxyphenyl)-3-(2-methylcyclopent-2-en-1-yl)urea]	≤ 10
CC1=CCC[C@H]1NC(=O)Nc1ccc(Cl)c(S(=O)(=O)C2(F)CCOC2)c1O (stereo partly drawn) [Compound 74, 1-(4-chloro-3-((3-fluorotetrahydro-furan-3-yl)sulfonyl)-2-hydroxyphenyl)-3-((R)-2-methylcyclopent-2-en-1-yl)urea]	≤ 1
O=C(Nc1ccc(Cl)c(S(=O)(=O)[C@H]2C[C@H](N3CCCC3)C2)c1O)NC1CCC=C1Cl (stereo partly drawn) [Compound 177, 1-(4-chloro-2-hydroxy-3-((trans-3-(pyrrolidin-1-yl)cyclobutyl)sul-fonyl)phenyl)-3-(2-chlorocyclopent-2-en-1-yl)urea, trifluoroacetic acid salt]	≤ 10
CC1=CCCC1NC(=O)Nc1ccc(Cl)c(S(=O)(=O)N2CCn3ccnc3C2)c1O (centres unmarked) [Compound 117, 1-(4-chloro-3-((5,6-dihydroimidazo [1,2-a]pyrazin-7(8H)-yl)sulfonyl)-2-hydroxyphenyl)-3-(2-methylcyclopent-2-en-1-yl)urea]	≤ 10
CC1=CCC[C@H]1NC(=O)Nc1ccc(Cl)c(S(=O)(=O)N2CCC(O)CC2)c1O [Compound 89, (R)-1-(4-chloro-2-hydroxy-3-((4-hydroxypiperidin-1-yl)sulfonyl)phenyl)-3-(2-methylcyclopent-2-en-1-yl)urea]	≤ 1
CO[C@@H]1CC[C@@H](S(=O)(=O)c2c(Cl)ccc(NC(=O)N[C@@H]3CCC=C3C)c2O)C1 (stereo in doubt) [Compound 143, trans-1-(4-chloro-2-hydroxy-3-((3-methoxycyclopent-yl)sulfonyl)phenyl)-3-((R)-2-methylcyclopent-2-en-1-yl)urea]	≤ 1
CC1=CCCC1NC(=O)Nc1ccc(Cl)c(S(=O)(=O)[C@H]2C[C@@H](O)C2)c1O (stereo partly drawn) [Compound 95, 1-(4-chloro-2-hydroxy-3-((cis-3-hydroxycyclobutyl)sulfonyl)phenyl)-3-(2-methylcyclopent-2-en-1-yl)urea]	≤ 1
CC(C)S(=O)(=O)c1c(Cl)ccc(NC(=O)NC2CCC=C2Cl)c1O (centres unmarked) [Compound 21, 1-(4-chloro-2-hydroxy-3-(isopropylsulfonyl)phenyl)-3-(2-chlorocyclopent-2-en-1-yl)urea]	≤ 1
